Legend:
[1] = tested on: high-fat diet-induced obesity model mice; test: Sirius Red staining and collagen amount in mouse tissue; type: in vivo; conditions: HPH-15 10 mg/kg or 100 mg/kg, metformin 300 mg/kg, orally 28 days, Western blotting
Experimental: High-fat diet-induced obesity model mice were prepared in the same manner as in Example 7. Then, HPH-15 (10 mg/kg or 100 mg/kg, […]) dissolved in olive oil or metformin (300 mg/kg, […]) was orally administered once a day for 28 days. Olive oil alone was administered as a control. After 28 days of administration of each, the liver and the epididymal fat of the high-fat diet-induced obesity model mice were stained with Sirius Red and observed using a microscope.
Further, high-fat diet-induced obesity model mice were prepared in the same manner as in Example 7. Then, HPH-15 (10 mg/kg or 100 mg/kg, […]) dissolved in olive oil or metformin (300 mg/kg, […]) was orally administered once a day for 28 days. Olive oil alone was administered as a control. After 28 days of administration of each, equal amounts (50 mg) of tissue pieces were collected from the liver and epididymal adipose tissues of the high-fat diet-induced obesity model mice, transferred to 1.5 mL Eppendorf tubes, and washed twice with PBS. After washing, the tissue pieces were transferred to BIOMASHER II, […] of RIPA buffer was added, and the tissue pieces were homogenized on ice. After homogenization, the tissue pieces were centrifuged (10,000 rpm, 4° C., 5 min) and the supernatant was obtained as a protein solution. The concentration of the proteins thus obtained was corrected based on the protein concentration measured by the BCA method using bicinchoninic acid (BCA), thereby preparing samples for Western blotting. Western blotting was quantified using ImageJ to calculate the amount of collagen.

[2] = tested on: high-fat diet-induced obesity model mice; test: H&E staining of mouse tissue; type: in vivo; conditions: metformin 300 mg/kg orally 28 days; compared to control
Experimental: High-fat diet-induced obesity model mice were prepared in the same manner as in Example 7. Note that the high-fat diet-induced obesity model mice develop liver damage and are thus used as a liver disease model. Then, HPH-15 (10 mg/kg or 100 mg/kg, […]) dissolved in olive oil or metformin (300 mg/kg, […]) was orally administered once a day for 28 days. Olive oil alone was administered as a control. After administration of each for 28 days, the liver, epididymis, and muscle of the high-fat diet-induced obesity model mice were stained with H&E and observed using a microscope. The results of H&E staining of the liver are shown in FIG. 12A, the results of H&E staining of the epididymis are shown in FIG. 12B, and the results of H&E staining of the muscle are shown in FIG. 12C.

Q: With `CN(C)C(=N)N=C(N)N` [metformin, reference compound] as the molecule, how does the “amount of collagen in the epididymal adipose tissue” value [1] read?
A: no collagen-reducing effect was confirmed

Q: And the “amount of collagen in the liver tissue” value [1]?
A: no collagen-reducing effect was confirmed

Q: And the “fat area (H&E)” value [2]?
A: only slightly reduced the fat area

From patent US20260000655A1, “PHARMACEUTICAL COMPOSITION FOR USE IN PREVENTION OR TREATMENT OF LIFESTYLE-RELATED DISEASE” (priority 2022, published 2026)
